For orientation: log P means the decadic logarithm of the partition coefficient of the neutral form, usually between octanol and water. The low end stands for a more hydrophilic compound, the high end for a more lipophilic compound.

The text below walks through data of patent US9802962B2, “Tricyclic pyrone compounds reduce amyloid beta aggregates” (priority 2013, dated 2017).

In data set [1] the test system is 5×FAD mice. The data set is described as follows: In vivo efficacy in 5×FAD mice. To be noted: 5×FAD mice. The method, then: FIGS. 6A-6E. 2-month-old 5×FAD mice were treated with TP70 or vehicle for 6 weeks as described in the text. Four cortical sections evenly distributed through the cerebrum were taken from one hemisphere of each mouse (6 mice in each treatment group) and fluorescently stained with the amyloid dye FSB (blue) and the nuclear dye propidium iodide (PI, red). A: Representative sections that show the PI stain. B: Representative sections that only show the FSB stain. C: Fluorescent staining was objectively quantified by LSC. […] E: A representative Western blot containing the soluble fractions of three mice of each group was analyzed for soluble Aβ dimer (see ref 59 for the method).
Although the mechanism of neuron loss in Alzheimer's disease (AD) remains elusive, it is associated with cerebral accumulation of Aβ42. The 5×FAD mouse model of amyloid deposition expresses five familial AD (FAD) mutations that are additive in driving Aβ42 overproduction.

The test system of data set [2] is ACAT. The data set is described as follows: ACAT inhibition. It is filed as biochemical. As to conditions: read-out: half maximal inhibitory concentration (IC50), ACAT. The text has this: (§1) It has been reported that an induction of cholesterol efflux resulting in a reduction of Aβ formation/deposition in vitro and in vivo (Kim, et al., J Alzheimers Dis, 2009, 16:121-131). For additional Detail, see the attached manuscript entitled, “Inhibition of Acyl-CoA: Cholesterol Acyltransferase (ACAT), Overexpression of Cholesterol Transporter Gene, and Protection of Amyloid β (Aβ) Oligomers-Induced Neuronal Cell Death by Tricylic Pyrone Molecules” which is incorporated herein.

Data set [3] deals with 5×FAD mice. To be noted: reported in Hong, et al., J Neurochem, 2009; cited from earlier work.
Data set [4] in a line: Plasma and brain concentrations after i.v. administration in mice. It is filed as in vivo. The method, then: FIGS. 3A-3B. FIG. 3A. CP2 and TP70 plasma and brain concentrations following i.v. injection in mice (n=3). FIG. 3B. […] The drug concentration was determined using HPLC and mass spectrometry.
HPLC/mass spectrometry were employed to quantify CP2 and TP70 in the plasma and brain after i.v. administration in mice. The CP2 concentration was 200-300 μM in the mouse brain between 0.5 and 2 h following 25 mg/kg i.v. administration (FIG. 3A). Similarly, TP70 concentration reached 190 μM in plasma at 5 min and 160 μM in brain at 2 h following 25 mg/Kg i.v. administration (FIGS. 3A and 3B).

In data set [5] the test system is ABCA1 cholesterol transporter gene. The data set is described as follows: Increase of ABCA1 cholesterol transporter gene. Format: cell-based.
Text: as §1

In data set [6] the test system is MC65 neuroblastoma cells. The data set is described as follows: MC65 protection assay. Format: cell-based. As to conditions: protection of MC65 cells from death caused by intracellular Aβ; for EC50: read-out: effective concentrations for 50% cell survival (EC50). Here is the method:
Employing medium-throughput cell-based MC65 protection assay to screen over one hundred TP compounds, seven TP compounds that protect MC65 neuroblastoma cells from death caused by intracellular Aβ have been identified. […] The EC50 values for CP2, TP70, and TP101 are 120, 80, and 70 nM, respectively.

Data set [7] in a line: log P by octanol/water partition. It is filed as physicochemical.

Take `Cc1cc2c(c(=O)o1)C=C1CC[C@H](C(C)Cn3cnc(N)c4ncnc3-4)C[C@@H]1O2` (some centres unmarked) [CP2]: in data set [1], the cerebral amyloid load result is given as “substantially reduce”; the “drug toxicity during the course of treatment” value was “no apparent drug toxicity”; the “histopathology, hematological counts, and blood chemistry at necropsy” value is “No abnormalities”; the “levels of toxic Aβ dimers” value is reported as “substantially reduce”. Also, the IC50 in data set [2] was 1200 nM. Further, in data set [3], the “soluble and insoluble Aβ aggregates in vivo” value was “reduce soluble and insoluble Aβ aggregates in vivo”. Moreover, in data set [4] (i.v., mice), the CNS penetration result was “good CNS penetration”. The compound further displayed a brain concentration in data set [4] (mouse brain, between 0.5 and 2 h, 25 mg/kg i.v.) of 200 to 300 µM. This compound also gave an EC50 in data set [5] of 900 nM. The EC50 in data set [6] was 120 nM. Also, the “log P” value in data set [7] is given as 2.20.

As to `CC(=O)OCCc1cc2c(c(=O)o1)C=C1CC[C@H](C(C)Cn3cnc(N)c4ncnc3-4)C[C@@H]1O2` (some centres unmarked) [TP4], the “EC50 values (in words)” value in data set [6] is “nanomolar range”.

As to `Cc1cc2c(c(=O)o1)C=C1CCC(C(C)CNCc3c[nH]cn3)CC1O2` (centres unmarked) [TP36], the “EC50 values (in words)” value in data set [6] is “nanomolar range”.

Take `Cc1cc2c(c(=O)o1)C=C1CCC(C(C)CNCc3ccc(O)c4ccccc34)CC1O2` (centres unmarked) [TP54]: in data set [6], the “EC50 values (in words)” value is “nanomolar range”.

As for `Cc1cc2c(c(=O)o1)C=C1CCC(C(C)CNCc3ccc(CO)cc3)CC1O2` (centres unmarked) [TP82], the “EC50 values (in words)” value in data set [6] is “nanomolar range”.

For the compound `Cc1cc2c(c(=O)o1)C=C1CCC(C(C)CNCc3ccc(O)c(F)c3)CC1O2` (centres unmarked) [TP101], in data set [6], the “EC50 values (in words)” value is given as “nanomolar range” and the EC50 is 70 nM.
